Source: paper PMC7857491, “Quantification and characterization of the 5′ exonuclease activity of the lysosomal nuclease PLD3 by a novel cell-based assay” (The Journal of Biological Chemistry, 2020)

Molecular target: Phospholipase D3 (PLD3) (Homo sapiens, UniProt Q8IV08)
Sequence (Q8IV08 whole entry): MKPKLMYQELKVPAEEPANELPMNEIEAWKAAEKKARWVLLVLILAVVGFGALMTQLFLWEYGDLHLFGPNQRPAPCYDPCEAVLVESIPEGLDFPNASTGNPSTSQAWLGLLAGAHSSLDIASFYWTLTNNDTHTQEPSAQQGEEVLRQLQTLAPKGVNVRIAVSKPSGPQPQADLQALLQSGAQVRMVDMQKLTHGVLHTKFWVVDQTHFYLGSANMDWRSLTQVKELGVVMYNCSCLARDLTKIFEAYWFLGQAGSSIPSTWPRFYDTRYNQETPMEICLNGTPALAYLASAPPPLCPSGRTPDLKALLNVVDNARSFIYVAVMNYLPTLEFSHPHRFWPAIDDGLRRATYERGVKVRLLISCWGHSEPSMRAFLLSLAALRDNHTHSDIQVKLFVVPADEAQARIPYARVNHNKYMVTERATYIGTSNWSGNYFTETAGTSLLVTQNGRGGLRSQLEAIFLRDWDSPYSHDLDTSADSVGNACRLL

## [O]=[V]([OH])([OH])[OH] [orthovanadate]
  IC50: 10 µM
